In ChEMBL document CHEMBL3872235, “Synthesis and biological evaluation of allylated mono-carbonyl analogues of curcumin (MACs) as anti-cancer agents for cholangiocarcinoma” (Bioorg Med Chem Lett, 2016):

How the values were obtained:
[1] = Cytotoxicity against RBEC assessed as cell survival at 20 uM after 24 hrs by MTT assay; assay type: toxicity; settings: rat, RBEC cells; read-out: Survival
[2] = Cytotoxicity against HUCCA cells assessed as decrease in cell viability after 24 hrs by MTT assay; assay type: functional, cell-based; settings: Homo sapiens
[3] = Cytotoxicity against human QBC939 cells assessed as decrease in cell viability after 24 hrs by MTT assay; assay type: functional, cell-based; settings: QBC939, 24 h
[4] = Cytotoxicity against RBEC assessed as decrease in cell viability after 24 hrs by MTT assay; assay type: toxicity; settings: rat, RBEC cells
[5] = Cytotoxicity against human HL7702 cells assessed as decrease in cell viability after 24 hrs by MTT assay; assay type: functional, cell-based; settings: L02, 24 h
[6] = Cytotoxicity against HIBEC assessed as decrease in cell viability after 24 hrs by MTT assay; assay type: toxicity; settings: human, HIBEC cells
[7] = Drug degradation in phosphate buffer at pH 7.4 measured up to 25 mins by UV-Vis spectral analysis; assay type: physicochemical; settings: for Stability: buffer, pH 7.4, 25 min
[8] = Cell cycle arrest in HUCCA cells assessed as accumulation at G2/M phase after 24 hrs by flow cytometric analysis; assay type: functional, cell-based; settings: Homo sapiens
[9] = Cell cycle arrest in human QBC939 cells assessed as accumulation at G2/M phase after 24 hrs by flow cytometric analysis; assay type: functional, cell-based
[10] = Cell cycle arrest in RBEC cells assessed as accumulation at G2/M phase after 24 hrs by flow cytometric analysis; assay type: ADME, cell-based; settings: rat
[11] = test system: HUCCA; assay: Increase in p53 expression in HUCCA cells after 24 hrs by Western blot analysis; assay type: functional, cell-based; settings: Homo sapiens
[12] = Decrease in Cdc2 expression in HUCCA cells after 24 hrs by Western blot analysis; assay type: functional, cell-based; settings: Homo sapiens
[13] = Increase in p53 expression in RBEC after 24 hrs by Western blot analysis; settings: rat
[14] = Decrease in Cdc2 expression in RBEC after 24 hrs by Western blot analysis; assay type: ADME; settings: rat
[15] = test system: QBC939; assay: Increase in p53 expression in human QBC939 cells after 24 hrs by Western blot analysis; assay type: functional, cell-based
[16] = Decrease in Cdc2 expression in human QBC939 cells after 24 hrs by Western blot analysis; assay type: functional, cell-based
[17] = Induction of apoptosis in HUCCA cells at 5 uM after 24 hrs by annexin V/propidium iodide staining based flow cytometry (reference value: 9.6%); assay type: functional, Homo sapiens
[18] = Induction of apoptosis in HUCCA cells at 7.5 uM after 24 hrs by annexin V/propidium iodide staining based flow cytometry (reference value: 9.6%); assay type: functional, Homo sapiens
[19] = Induction of apoptosis in HUCCA cells at 10 uM after 24 hrs by annexin V/propidium iodide staining based flow cytometry (reference value: 9.6%); assay type: functional, Homo sapiens
[20] = Induction of apoptosis in RBEC at 5 uM after 24 hrs by annexin V/propidium iodide staining based flow cytometry (reference value: 2.3%); settings: rat
[21] = Induction of apoptosis in RBEC at 7.5 uM after 24 hrs by annexin V/propidium iodide staining based flow cytometry (reference value: 2.3%); settings: rat
[22] = Induction of apoptosis in RBEC at 10 uM after 24 hrs by annexin V/propidium iodide staining based flow cytometry (reference value: 2.3%); settings: rat
[23] = Induction of apoptosis in human QBC939 cells at 5 uM after 24 hrs by annexin V/propidium iodide staining based flow cytometry (reference value: 2.21%); assay type: functional
[24] = Induction of apoptosis in human QBC939 cells at 7.5 uM after 24 hrs by annexin V/propidium iodide staining based flow cytometry (reference value: 2.21%); assay type: functional
[25] = Induction of apoptosis in human QBC939 cells at 10 uM after 24 hrs by annexin V/propidium iodide staining based flow cytometry (reference value: 2.21%); assay type: functional
[26] = test system: HUCCA; assay: Induction of apoptosis in HUCCA cells after 24 hrs by annexin V/propidium iodide staining based flow cytometry; assay type: functional, cell-based; settings: Homo sapiens
[27] = Induction of apoptosis in RBEC after 24 hrs by annexin V/propidium iodide staining based flow cytometry; settings: rat
[28] = test system: QBC939; assay: Induction of apoptosis in human QBC939 cells after 24 hrs by annexin V/propidium iodide staining based flow cytometry; assay type: functional, cell-based
[29] = test system: HUCCA; assay: Induction of apoptosis in HUCCA cells assessed as increase in Bax protein expression after 24 hrs by Western blot analysis; assay type: functional, cell-based; settings: Homo sapiens
[30] = Induction of apoptosis in RBEC assessed as increase in Bax protein expression after 24 hrs by Western blot analysis; settings: rat
[31] = test system: QBC939; assay: Induction of apoptosis in human QBC939 cells assessed as increase in Bax protein expression after 24 hrs by Western blot analysis; assay type: functional, cell-based
[32] = test system: HUCCA; assay: Induction of apoptosis in HUCCA cells assessed as decrease in Bcl-2 protein expression after 24 hrs by Western blot analysis; assay type: functional, cell-based; settings: Homo sapiens
[33] = Induction of apoptosis in RBEC assessed as decrease in Bcl-2 protein expression after 24 hrs by Western blot analysis; settings: rat
[34] = test system: QBC939; assay: Induction of apoptosis in human QBC939 cells assessed as decrease in Bcl-2 protein expression after 24 hrs by Western blot analysis; assay type: functional, cell-based
[35] = test system: HUCCA; assay: Induction of apoptosis in HUCCA cells assessed as decrease in PARP cleavage after 24 hrs by Western blot analysis; assay type: functional, cell-based; settings: Homo sapiens
[36] = Cell cycle arrest in RBEC cells assessed as accumulation at G2/M phase at 20 uM after 24 hrs by flow cytometric analysis; assay type: cell-based; settings: rat
[37] = Increase in p53 expression in RBEC at 20 uM after 24 hrs by Western blot analysis; assay type: ADME; settings: rat
[38] = Decrease in Cdc2 expression in RBEC at 20 uM after 24 hrs by Western blot analysis; settings: rat
[39] = Induction of apoptosis in HUCCA cells at 20 uM after 24 hrs by annexin V/propidium iodide staining based flow cytometry (reference value: 9.6%); assay type: functional, Homo sapiens
[40] = Induction of apoptosis in RBEC at 20 uM after 24 hrs by annexin V/propidium iodide staining based flow cytometry (reference value: 2.3%); settings: rat
[41] = Induction of apoptosis in human QBC939 cells at 20 uM after 24 hrs by annexin V/propidium iodide staining based flow cytometry (reference value: 2.21%); assay type: functional

C=CCc1cc(/C=C2\CN(CCC)C/C(=C\c3cc(OC)c(OC)cc3OC)C2=O)ccc1O
viability at 24 h, 20 µM [1]: < 50%

C=CCc1cc(/C=C2\CSC/C(=C\c3ccc(O)c(CC=C)c3)C2=O)ccc1O
IC50 [2]: 8.7 µM
IC50 [3]: 9.3 µM
IC50 at 24 h [4]: 8.1 to 8.9 µM
IC50 [5]: 9.7 µM
IC50 at 24 h [6]: 9.8 µM
viability at 24 h, 20 µM [1]: < 50%
Stability [7]: Stable
Activity [8]: Dose-dependent effect
Activity [9]: Dose-dependent effect
Activity [10]: Dose-dependent effect
Activity [11]: Dose-dependent effect
Activity [12]: Dose-dependent effect
Activity [13]: Dose-dependent effect
Activity [14]: Dose-dependent effect
Activity [15]: Dose-dependent effect
Activity [16]: Dose-dependent effect
Activity [17]: 19.4%
Activity [18]: 31.8%
Activity [19]: 41.6%
Activity [20]: 9.3%
Activity [21]: 13.9%
Activity [22]: 39.9%
Activity [23]: 7.6%
Activity [24]: 15.8%
Activity [25]: 38.6%
Activity [26]: Dose-dependent effect
Activity [27]: Dose-dependent effect
Activity [28]: Dose-dependent effect
Activity [29]: Dose-dependent effect
Activity [30]: Dose-dependent effect
Activity [31]: Dose-dependent effect
Activity [32]: Dose-dependent effect
Activity [33]: Dose-dependent effect
Activity [34]: Dose-dependent effect
Activity [35]: Dose-dependent effect

C=CCc1cc(/C=C2\CCC/C(=C\c3ccc(O)c(CC=C)c3)C2=O)ccc1O
viability at 24 h, 20 µM [1]: < 50%

C=CCc1cc(/C=C2\CNC/C(=C\c3ccc(O)c(CC=C)c3)C2=O)ccc1O
viability at 24 h, 20 µM [1]: < 50%

C=CCc1cc(/C=C2\COC/C(=C\c3ccc(O)c(CC=C)c3)C2=O)ccc1O
IC50 at 24 h [4]: 15 µM
viability at 24 h, 20 µM [1]: < 50%
Stability [7]: Stable

C=CCc1cc(/C=C2\CN(C3CC3)C/C(=C\c3ccc(O)c(CC=C)c3)C2=O)ccc1O
IC50 at 24 h [4]: 14.4 µM
viability at 24 h, 20 µM [1]: < 50%

C=CCc1cc(/C=C2\CC/C(=C\c3ccc(O)c(CC=C)c3)C2=O)ccc1O
IC50 at 24 h [4]: 10.7 µM
Stability [7]: Stable

COc1cc(/C=C/C(=O)CC(=O)/C=C/c2ccc(O)c(OC)c2)ccc1O [CURCUMIN]
degraded at 25 min ([7]; phosphate buffer, pH 7.4, read-out: Drug degradation): 50%
Activity [36]: Non-Toxic
Activity [37]: Non-Toxic
Activity [38]: Non-Toxic
Activity [39]: 21.7%
Activity [40]: 27.6%
Activity [41]: 18.5%

C=CCc1cc(/C=C2\CN(S(=O)(=O)CCC)C/C(=C\c3ccc(O)c(CC=C)c3)C2=O)ccc1O
viability at 24 h, 20 µM [1]: < 50%

O=c1[nH]cc(F)c(=O)[nH]1 [FLUOROURACIL]
IC50 [2]: 13.4 µM
IC50 [3]: 16.1 µM
IC50 at 24 h [4]: 19.3 µM

C=CCc1cc(/C=C2\CN(C3CC3)C/C(=C\c3ccc(OC(C)(C)C)cc3)C2=O)ccc1O
viability at 24 h, 20 µM [1]: < 50%

C=CCc1cc(/C=C2\CN(C(C)C)C/C(=C\c3ccc(O)c(CC=C)c3)C2=O)ccc1O
viability at 24 h, 20 µM [1]: < 50%

C=CCc1cc(/C=C2\CN(C(=O)c3ccccc3)C/C(=C\c3ccc(O)c(CC=C)c3)C2=O)ccc1O
viability at 24 h, 20 µM [1]: < 50%
